Reference: US7649010B2, “Carvedilol hydrobromide” (SmithKline Beechman Cork Limited, priority 2002, dated 2010)
Values after ≈ are worked out from the molar mass of the structure shown. Structures can show the parent of a compound that is named as a salt.

Key:
[1] = pKa of the α-hydroxyl secondary amine functional group; assay type: physicochemical
Excerpt: (§1) At lower pH values (i.e., at a pH of 1 to 4 in various buffer systems), solubility of carvedilol is limited by the solubility of its protonated form or its corresponding salt formed in-situ.

physchem = conditions: thermodynamic from solid
Excerpt: as §1

α-adrenergic = conditions: cited from earlier work
β-adrenoreceptor = conditions: cited from earlier work
[2] = aqueous solubility of the crystalline salt compared with free base and other salts; assay type: physicochemical
[3] = solubility of the in-situ salt in acidic medium (simulated gastric fluid); assay type: physicochemical; conditions: generated in-situ in an acidic medium, such as simulated gastric fluid

What does the source list for `COc1ccccc1OCCNCC(O)COc1cccc2[nH]c3ccccc3c12` (racemic) [Carvedilol]?
pKa [1]: 7.8; solubility (physchem; pH 5, aqueous buffer): ~100 µg/mL (≈ 246 µM); solubility (physchem; pH 7, aqueous buffer): ~23 µg/mL (≈ 56.6 µM); solubility (physchem; pH 9, aqueous buffer): < 1 µg/mL

With `COc1ccccc1OCCNC[C@@H](O)COc1cccc2[nH]c3ccccc3c12` (single isomer, unassigned) [R(+) enantiomer] as the compound, how does the α-adrenergic blocking activity (α-adrenergic) read?
Its α-adrenergic blocking activity is “exhibited”.

What does the source list for `COc1ccccc1OCCNC[C@H](O)COc1cccc2[nH]c3ccccc3c12` (single isomer, unassigned) [S(−) enantiomer]?
nonselective β-adrenoreceptor blocking activity (β-adrenoreceptor): exhibited; α-adrenergic blocking activity (α-adrenergic): exhibited

Which results are given for `COc1ccccc1OCCNCC(O)COc1cccc2[nH]c3ccccc3c12` (stereo not shown) [carvedilol hydrobromide]?
solubility compared to the free base of carvedilol ([2]; novel crystalline form): much higher solubility; aqueous solubility relative to free base or other crystalline salts (hydrochloride) ([2]; pure crystalline solid): much higher aqueous solubility

Which “solubility relative to the protonated form of carvedilol” value [3] does the source give for `COc1ccccc1OCCNCC(O)COc1cccc2[nH]c3ccccc3c12.Cl` (stereo not shown) [hydrochloride salt of carvedilol] here?
The value was “less soluble”.
